The values below are quoted from earlier work in US20220088024A1, “METHODS FOR TREATING CANCER USING TOZADENANT” (Biotie Therapies, Inc., priority 2018, published 2022).

This data set relates to mouse tumor models. The note with it: cited from earlier work.

For the molecule `Cc1ccc(-c2nc(N)nc3c2nnn3Cc2cccc(CO[C@H]3CCOC3)n2)o1` [CPI444], the “Efficacy in mouse tumor models” value (alone and in combination with an anti-PD-1 agent (Willingham et al. 2016)) is listed as “effective”.
Regarding `Nc1nc2c(cnn2CCc2ccccc2)c2nc(-c3ccco3)nn12` [SCH 58261], where the note is “monotherapy (Hammerl et al. 2016)”, the “Activity in a mouse tumor model” value is “demonstrated activity as monotherapy”.
